EC50 and Ki data for 17 molecules are collected here from US20260008775A1, “AZOLE MODULATORS OF CHOLESTEROL BIOSYNTHESIS AND THEIR USE FOR PROMOTING REMYELINATION” (GENENTECH, INC., priority 2022, published 2026).

Molecules are shown by their SMILES.

Usually EC50 stands for the concentration at which the effect is half-maximal. The Ki is a measure of affinity in units of concentration, obtained from inhibition or displacement.

In assay [1] the test system is zymostenol accumulation (EBP) in EpiSC-derived OPCs. Put plainly: GC/MS-based sterol profiling, zymostenol accumulation in EpiSC-derived OPCs. The class given is cell-based, mouse. Particulars: Mus musculus, 24 h, EpiSC-derived OPCs, 24 hr, 8 doses from 0.15 nM to 333 nM; read-out: Mouse Zymostenol GCMS EC50. The protocol:
To assess effects of treatments on OPCs, all treatments were assayed in two or more independent platings of epiblast stem cell-derived OPCs (EpiSC). EpiSC-derived OPCs were obtained using in vitro differentiation protocols and culture conditions described previously (Najm et al, 2011, Nature Methods). OPCs were expanded and frozen down in aliquots. OPCs were thawed into growth conditions for at least one passage before use in further assays.
Sterols were monitored using a modified Folch wash protocol (Hubler et al, 2018, Nature). EpiSC-derived OPCs were plated at 100,000 cells per well in PO- and laminin-coated 96-well plates in N2B27 media without growth factors. After 24 hours, cells were rinsed with saline and plates were frozen. Cholesterol-d7 standard was then added to each well before drying under nitrogen stream and derivatization with 55 μl of bis(trimethylsilyl) trifluoroacetamide. After derivatization, 2 μl were analyzed by gas chromatography/mass spectrometry using an Agilent 5973 Network Mass Selective Detector equipped with a 6890 gas chromatograph system and a HP-5MS capillary column (30 m×0.25 mm×[…]). Samples were analyzed in full scan mode using electron impact ionization; ion fragment peaks were integrated to calculate sterol abundance, and quantitation was relative to cholesterol-d7. The following ion fragments were used to quantitate each metabolite: cholesterol-d7 (465), FF-Mas (482), cholesterol (368), zymostenol (458), zymosterol (456), Desmosterol (456, 343), 7-dehydrocholesterol (456, 325), lanosterol (393), lathosterol (458), 14-dehydrozymostenol (456, 351). […] All standards were obtained from Avanti Polar Lipids unless otherwise indicated. Calibration curves were generated by injecting varying concentrations of sterol standards and maintaining a fixed amount of cholesterol-D7. For normalized zymostenol accumulation results, the total amount of zymostenol measured after drug treatment was divided by the total amount of zymostenol accumulated after 24 hr treatment with 100 nM positive control reference.

In assay [2] the target is human emopamil binding protein and human 7-dehydrocholesterol reductase (hEBP-DHCR7) (Homo sapiens (Human), UniProt Q15125). Put plainly: hEBP-DHCR7 radioligand binding assay (filter binding, membranes of co-expressing HEK293 cells). Particulars: competition with [3H] radioligand, 8 doses 0.06 to 5000 nM, Ki calculated from IC50. The protocol:
Membrane Preparation: human emopamil binding protein and human 7-dehydrocholesterol reductase co-expressing cells were generated by transient transfecting host human embryonic kidney (HEK) 293 cells with 2 DNA constructs containing each protein's coding sequence. Cells were suspension cultured at 37° C. with 5% CO2 in […] 293 Expression Medium (Thermofisher). Whole cell membrane was prepared by harvesting the cell pellet, adding cold membrane buffer (50 mM Tris, pH7.5, 1× Roche COMPLETE EDTA-free protease inhibitor cocktail) 10 times volume of the cell pellets weight, lysing cell pellet on ice by using Dounce homogenizer, spinning at 200 g 4° C. for 15 min, collecting supernatant and spinning again at 25000 g 4° C. for 50 min, transferring pellet to Dounce homogenizer, re-suspending pellet by homogenizing in membrane buffer on ice to reach ˜25 mg/mL, then keeping whole cell membrane aliquots at −80° C.
Compounds were prepared in a 96-well U bottom plate (Corning Cat #7007) using an Echo550 machine and 10 mM compound DMSO stock solution, followed by an 8-dose 5-fold serial dilutions protocol with final testing compound concentration ranging from 0.06 to 5000 nM, with DMSO back fill to 100 nL/well and n=2. […] The UniFilter-96 GF/B plates (PerkinElmer Cat #6005177) were pre-treated by adding 50 μl/well of 0.3% (v/v) Polyethylenimine (PEI) (branched, Sigma Cat #408727) to UniFilter-96 GF/B plates. The plates were sealed and incubated at 4° C. for 3 hrs. Then, the plates were washed with ice-cold assay buffer 3 times. The radioligand binding assay was prepared by adding assay buffer diluted hEBP-DHCR7 membrane at 66.7 µg/ml×150 μl/well into the 96-well compound plate to reach 10 μg membrane per well. Then, the assay buffer diluted [3H]—(S)-6-(2-Methyl-3-(6-(trifluoromethyl)pyridin-3-yl)propyl)-2-thia-6-azaspiro[3.4]octane 2,2-dioxide (Moravek, Cat #MT-1003106) was added at 25 nM×50 μl/well. Following this, the plate was centrifuged at 1000 rpm for 30 secs. The plate was then sealed and agitated at 600 rpm at 22° C. for 5 min, and then incubated at 22° C. for 3 hrs. The incubation was stopped by transferring the binding solution to the pre-treated UniFilter-96 GF/B plate, vacuum filtrated, and then washed four times with ice-cold assay buffer. Following this, the plates were dried at 37° C. for 45 min. The plates were then sealed at the bottom. 40 µl/well of scintillation cocktail was added to the plates. A MicroBeta2 microplate counter was then used to read the plate and analyze the data. For reference and test compounds, the results are expressed as % Inhibition, using the normalization equation: N=100−100×(U−C2)/(C1−C2), where U is the unknown value, C1 is the average of high controls, and C2 is the average value of low controls.

human emopamil binding protein and human 7-dehydrocholesterol reductase (hEBP-DHCR7), sequence (Q15125 whole entry): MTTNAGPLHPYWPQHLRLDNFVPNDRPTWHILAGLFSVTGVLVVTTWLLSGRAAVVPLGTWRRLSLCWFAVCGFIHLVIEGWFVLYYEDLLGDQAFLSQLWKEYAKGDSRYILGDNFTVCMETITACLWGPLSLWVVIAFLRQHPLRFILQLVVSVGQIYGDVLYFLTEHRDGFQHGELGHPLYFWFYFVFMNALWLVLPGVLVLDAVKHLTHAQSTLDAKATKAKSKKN

In the case of `CC(C)n1nc(-c2cccc(OC(F)F)c2)nc1[C@H]1[C@@H]2C[C@@H](N3CCOC[C@H]3C)C[C@@H]21` [Compound 77, (R)-4-((1R,3s,5S,6R)-6-(3-(3-(Difluoromethoxy)phenyl)-1-isopropyl-1H-1,2,4-triazol-5-yl)bicyclo[3.1.0]hexan-3-yl)-3-methylmorpholine], the EC50 in assay [1] stood at 191 nM. Further, in assay [2], the Ki was 129 nM.
With `COCCN1CCN([C@@H]2CC[C@@H](c3nc(-c4ccc(C(F)(F)F)nc4)nn3C(C)C)C2)CC1` [Compound 82, 1-((1R,3R)-3-(1-Isopropyl-3-(6-(trifluoromethyl)pyridin-3-yl)-1H-1,2,4-triazol-5-yl)cyclopentyl)-4-(2-methoxyethyl)piperazine], the EC50 in assay [1] amounted to 280 nM. Further, the Ki in assay [2] is 87 nM.
Consider `CC(C)n1nc(-c2cccc(C(F)(F)F)n2)cc1[C@H]1[C@@H]2C[C@@H](N3CCN(C4CCC4)CC3)C[C@@H]21` [Compound 84, 1-Cyclobutyl-4-((1R,3s,5S,6r)-6-(1-isopropyl-3-(6-(trifluoromethyl)pyridin-2-yl)-1H-pyrazol-5-yl)bicyclo[3.1.0]hexan-3-yl)piperazine], for which the EC50 in assay [1] is 3.49 nM. The Ki in assay [2] is 27.8 nM.
In the case of `CC(C)n1nc(-c2cccc(C(F)(F)F)n2)cc1[C@H]1[C@@H]2C[C@H](N3CCN(C4CCC4)CC3)C[C@@H]21` [Compound 85, 1-Cyclobutyl-4-((1R,3r,5S,6r)-6-(1-isopropyl-3-(6-(trifluoromethyl)pyridin-2-yl)-1H-pyrazol-5-yl)bicyclo[3.1.0]hexan-3-yl)piperazine], the EC50 in assay [1] came to 279 nM. The Ki in assay [2] is 472 nM.
Turning to `CC(C)n1nc(-c2cnc(C(F)(F)F)nc2)nc1[C@H]1CC[C@H](N2CCOCC2)C1` [Compound 94, 4-((1S,3S)-3-(1-Isopropyl-3-(2-(trifluoromethyl)pyrimidin-5-yl)-1H-1,2,4-triazol-5-yl)cyclopentyl)morpholine], in assay [1], the EC50 amounted to 187 nM. Further, the Ki in assay [2] is 243 nM.
As to `CC(C)n1nc(-c2cnc(C(F)(F)F)nc2)cc1[C@H]1[C@@H]2C[C@@H](N3CCOC[C@H]3C)C[C@@H]21` [Compound 96, (R)-4-((1R,3s,5S,6R)-6-(1-Isopropyl-3-(2-(trifluoromethyl)pyrimidin-5-yl)-1H-pyrazol-5-yl)bicyclo[3.1.0]hexan-3-yl)-3-methylmorpholine], the EC50 in assay [1] turned out to be 928 nM. Also, the Ki in assay [2] was 631 nM.
For the molecule `CC(C)n1nc(-c2ccnc(C(F)(F)F)n2)cc1[C@H]1[C@@H]2C[C@H](N3CCOCC3)C[C@@H]21` [Compound 99, 4-((1R,3r,5S,6r)-6-(1-Isopropyl-3-(2-(trifluoromethyl)pyrimidin-4-yl)-1H-pyrazol-5-yl)bicyclo[3.1.0]hexan-3-yl)morpholine], the EC50 in assay [1] is 62 nM. Also, in assay [2], the Ki was 87.8 nM.
Consider `CC(C)n1nc(-c2ccnc(C(F)(F)F)n2)cc1[C@H]1[C@@H]2C[C@@H](N3CCOC[C@@H]3C)C[C@@H]21` [Compound 100, (S)-4-((1R,3s,5S,6S)-6-(1-Isopropyl-3-(2-(trifluoromethyl)pyrimidin-4-yl)-1H-pyrazol-5-yl)bicyclo[3.1.0]hexan-3-yl)-3-methylmorpholine], for which the EC50 in assay [1] was found to be 5.99 nM. For the same molecule, in assay [2], the inhibition constant (Ki) was 11 nM.
For `CC(C)n1nc(-c2ccnc(C(F)(F)F)n2)cc1[C@H]1[C@@H]2C[C@@H](N3CCOC[C@H]3C)C[C@@H]21` [Compound 102, (R)-4-((1R,3s,5S,6S)-6-(1-Isopropyl-3-(2-(trifluoromethyl)pyrimidin-4-yl)-1H-pyrazol-5-yl)bicyclo[3.1.0]hexan-3-yl)-3-methylmorpholine] the same measures were 55 nM and 73 nM.
Regarding `CC(C)n1nc(-c2cncc(C(F)(F)F)n2)cc1[C@H]1[C@@H]2C[C@H](N3CCOCC3)C[C@@H]21` [Compound 108, 4-((1R,3r,5S,6r)-6-(1-Isopropyl-3-(6-(trifluoromethyl)pyrazin-2-yl)-1H-pyrazol-5-yl)bicyclo[3.1.0]hexan-3-yl)morpholine], in assay [1], the EC50 came out at 62 nM. In assay [2], the Ki is 87.8 nM.
For the molecule `CC(C)n1nc(-c2cncc(C(F)(F)F)c2)nc1[C@H]1[C@@H]2C[C@@H](N3CCOC[C@H]3C)C[C@@H]21` [Compound 119, (R)-4-((1R,3s,5S,6R)-6-(1-Isopropyl-3-(5-(trifluoromethyl)pyridin-3-yl)-1H-1,2,4-triazol-5-yl)bicyclo[3.1.0]hexan-3-yl)-3-methylmorpholine], in assay [1], the EC50 amounted to 213 nM. Moreover, the Ki in assay [2] was 584 nM.
The like results for `CC(C)n1nc(-c2cncc(C(F)(F)F)c2)nc1[C@H]1[C@@H]2C[C@@H](N3CCOC[C@@H]3C)C[C@@H]21` [Compound 121, (S)-4-((1R,3s,5S,6R)-6-(1-Isopropyl-3-(5-(trifluoromethyl)pyridin-3-yl)-1H-1,2,4-triazol-5-yl)bicyclo[3.1.0]hexan-3-yl)-3-methylmorpholine] were, in that order, 193 nM and 564 nM.
For `CC(C)n1nc(-c2cncc(C(F)(F)F)c2)nc1[C@H]1[C@@H]2C[C@H](N3CCOC[C@@H]3C)C[C@@H]21` [Compound 122, (S)-4-((1R,3r,5S,6R)-6-(1-Isopropyl-3-(5-(trifluoromethyl)pyridin-3-yl)-1H-1,2,4-triazol-5-yl)bicyclo[3.1.0]hexan-3-yl)-3-methylmorpholine] the same measures were 7.81 nM and 26.6 nM.
Take `CC[C@H]1CN([C@@H]2CC[C@H](c3nc(-c4cncc(F)c4)nn3C(C)C)C2)CCO1` [Compound 123, (S)-2-Ethyl-4-((1R,3S)-3-(3-(5-fluoropyridin-3-yl)-1-isopropyl-1H-1,2,4-triazol-5-yl)cyclopentyl)morpholine]: the EC50 in assay [1] came to 10.6 nM. In addition, the Ki in assay [2] was 40.4 nM.
The like results for `CC[C@@H]1CN([C@@H]2CC[C@H](c3nc(-c4cncc(F)c4)nn3C(C)C)C2)CCO1` [Compound 124, (R)-2-Ethyl-4-((1R,3S)-3-(3-(5-fluoropyridin-3-yl)-1-isopropyl-1H-1,2,4-triazol-5-yl)cyclopentyl)morpholine] were, in that order, 376 nM and 2400 nM.
As to `CC(C)n1nc(-c2cncc(Cl)c2)nc1[C@H]1CC[C@H](N2CCOC[C@@H]2C)C1` [Compound 125, (S)-4-((1S,3S)-3-(3-(5-Chloropyridin-3-yl)-1-isopropyl-1H-1,2,4-triazol-5-yl)cyclopentyl)-3-methylmorpholine], the EC50 in assay [1] is 716 nM. For the same molecule, the Ki in assay [2] was 245 nM.
The like results for `CC(C)n1nc(-c2cncc(Cl)c2)nc1[C@H]1CC[C@@H](N2CCOC[C@@H]2C)C1` [Compound 126, (S)-4-((1R,3S)-3-(3-(5-Chloropyridin-3-yl)-1-isopropyl-1H-1,2,4-triazol-5-yl)cyclopentyl)-3-methylmorpholine] were, in that order, 6.79 nM and 30.8 nM.
